# From patent publication US4695576A, “L-N-n-propylpipecolic acid-2,6-xylidide” (priority 1985, dated 1987)
# Entries after “also recorded” stand apart in the source; their conditions may differ. Where two headings read alike, the source gives them in different places.
# Experiments:
# [1] = test system: tissue; test: Tissue toxicity limits (Trypan blue test, threshold of tissue irritancy); type: in vivo
# Excerpt: The toxicity of the homologous series of N-alkylpipecolic acid-2,6-xylidides increases step wise and quickly with the lengthening of the alkyl chain. This is manifest from Table 1 set forth below, which compares racemic mixtures of alkyl homologues having from 1 to 5 carbon atoms.
# *Trypan blue test; Hoppe et al. (1950), 39, 147-151 "Use of Trypan Blue
# and Rabbit Eye Tests For Irritation", J. Amer. Pharm. Assoc. (Scient.
# Ed.), the values are approximate threshold values of tissue irritancy.
# [2] = in vivo; conditions: mouse, iv
# [3] = test system: peripheral nerve endings of the epidermis; test: Intracutaneous wheals, infiltration anesthesia on forearms of man; type: in vivo; conditions: Conc. 0.25%; 12 healthy volunteers, pinprick
# Excerpt: By use of intracutaneous wheals it is possible to measure the analgesic effect of an anesthetic on the peripheral nerve endings of the epidermis.
# This technique gives information about:
# (1) The duration of anesthesia.
# ^1 Infiltration anesthesia on forearms of man. The test solutions wer
# injected intracutaneously on the dorsum of the forearms of 12 healthy
# volunteers, 20-25 years old. Three wheals were made on each arm in a
# rotating system in a doublebind fashion. The local anesthetic effect was
# tested using a pinprick technique. The "duration of anesthesia" was
# defined as the time during which none out of six pinpricks into the wheal
# was felt. The method has been described by Dhuner et al. (1972). […]
# [4] = test system: ulnar volar nerves; test: Finger blockade, digital nerve blocks in man; type: in vivo; conditions: for Time of onset, finger blockade: time from injection to complete analgesia
# Method: ^2 Digital nerve blocks in man. The test solutions were injected to
# block the ulnar volar nerves on the 2nd and 4th fingers of the same
# volunteers who had participated in the intracutaneous wheal tests
# described above. The tests were carried out in a double blind fashion in
# rotating system, so that each solution was used with equal frequency on
# each of the blocked fingers. A total of for injections 1.0 ml per
# injection, was done in each subject. One week later the procedure was
# repeated in the same subjects using the remaining test solutions. This
# method has been described by Dhuner et al. (1972) (for citation see Table
# 2 footnote 1). To measure the efficacy and duration of the blocks, the
# individual fingers were pricked rapidly 10 times with a needle algesimete
# and the number of painful pricks noted. Each finger was tested every five
# minutes until complete recovery. The time of complete anesthesia has been
# called "duration of anesthesia".
# *i.e. the time from injection to complete analgesia?
# **i.e. the number of successful anesthesias of total number of
# anesthesias performed (no anesthesia is possible if the ulnar volar nerve
# are not contacted by the anesthetic).
# [5] = test system: skin; test: Skin temperature measurements within intracutaneous wheals; type: in vivo, man; conditions: for Temperature Difference (T1 wheal vs T2 controls) / T1 Intracutaneous Wheal temperature: Conc. 0.25%, HCl-salt, 10 minutes after injection; for T1 Intracutaneous Wheal temperature: mean of 6 wheals
# Method: The mean value of 6 wheals for each substance forms the basis for the values. The control values, however, represent the mean value obtained from 4 different sites measured outside the wheals 90 degrees apart and 2 centimeters from the wheal's center.
# In the temperature measurements, an Oriel temperature apparatus* has been used. This is battery driven and is connected to a detector (diameter, 2.5 mm) and has an accuracy of ±0.1° C. The temperature of the skin is measured by pressing the detector against the skin with a pressure of 100 grams. It is retained against the skin until a constant temperature is obtained.
# In Table 4, T1 is the measurement obtained at the center of the wheal, and T2 is the average of four measurements taken 90 degrees apart outside of the wheal and within 2 centimeters of the wheal's center.
# [6] = test system: conscious rats; test: Heart-toxicity in conscious rats (ECG); type: in vivo, Male Sprague Dawley rats; conditions: for potency to induce atrioventricular conduction disturbances: rat, in vivo
# Method: Male Sprague Dawley rats weighing 290-360 grams were prepared with intravenous catheters under local anesthesia using prilocaine (Citanest*) one hour before experiments. Rapid intravenous bolus injections over 5.0 seconds were given to groups of 8 rats, with a single injection to each animal. […] The ECG was recorded on a Mingograf 34. Convulsions were recorded manually with an electronic marker on one channel of the Mingograf. Only "primary" arrhythmias occurring during the first 60 seconds have been analyzed to avoid confusion with late arrhythmias occurring secondary to respiratory arrest or cardiovascular collapse.
# [7] = test system: pigs; test: Intracoronary administration in anesthetized pigs; type: in vivo, pig; conditions: for sudden cardiac collapse: intracoronary
# Method: Eight pigs weighing around 50 kg were anesthetized with a continuous infusion of pentobarbital at 600 mg/h. Ventilation was established via a tracheotomy with 30% oxygen in nitrogen and normoventilation by a Siemens-Elema Servoventilator 900B. The following catheters were inserted after cutdown: Left ventricular, aortic, pulmonary arterial, great cardiac venous, left anterior descending coronary, arterial and central venous. […] The corresponding doses for bupivaciane were 0.25, 0.5, 1, 2 and 4 mg and for LEA 0.33, 0.66, 1.33, 2.66 and 5.33 mg. The injection rate was adjusted according to the preinjection coronary blood flow. Each series of drug injections was preceded by a placebo infusion. Total hemodynamic and electrocardiographic recovery was allowed between doses and there was a one hour resting period between drugs.
# Central pressures, left ventricular dP/dT and a complete chest lead ECG were recorded continuously. Cardiac output and great cardiac venous blood flow were determined before and directly after each dose of the local anesthetic agent.
# [8] = biological target: T1, guinea-pig papillary muscle sodium channels (Cavia porcellus, UniProt H0V4Z8); test: Action on guinea-pig papillary muscle sodium channels (Vmax, recovery from block); type: cell-based; conditions: for recovery to 90% of drug-blocked channels: -90 mV; for potency on cardiac sodium channels: equimolar concentrations; for recovery from block: especially at hyperpolarized levels (-100--120 mV)
# T1 construct: Vmax of action potential as measure of sodium current
# Excerpt: Depression of cardiac conduction appears to be one of the primary mechanisms underlying local anesthetic cardiotoxicity. Depression of conduction by local anesthetics in both nerve and cardiac tissue results from a block of sodium channels. Furthermore, the degree of sodium channel block by local anesthetics is dependent upon the state of the sodium channel. […] Consequently, a block of sodium channels develops during the upstroke and plateau of the action potential and dissipates during the diastolic interval between beats. Since the effect of a local anesthetic is both state and time dependent, changes in both heart rate and diastolic membrane potential may alter drug action substantially.
# (§1) Guinea pig papillary tests were carried out according to the recommendation of the "Report of the Subcommittee on Cardiotoxicity of Local Anesthetics" (Leroy D. Vandam, M.D., chairman). Guinea pig papillary muscle excised from the right ventricle were mounted in a single sucrose gap apparatus (Arlock & Katzune, 1985). Solutions maintained at 37° C.±0.5° continuously perfused the gap compartments. The rear chamber contained isotonic potassium chloride solution. The drugs were added to a Tris-Tyrode solution passing the tip of the muscle. The Tris-Tyrode solution contained (mM): NaCl, 145; KCl, 4; CaCl2, 1.2; MgCl2, 1.05; glucose, 5.5 Tris maleate, 5. It was adjusted to pH 7.4 with trismaleate and HCl before use and gassed with 100% oxygen. Isotonic sucrose solution isolated the rear from the tip to enable current- and voltage-clamping.
# The muscles were depolarized with long current pulses (1500 msec). These current steps can induce automaticity or DIA (depolarization induced automaticity). The steps were adjusted so the preparations were depolarized to from -50 to -30 mV since that is in that range that calcium current conductance is initiated.
# The results represent the mean from representative experiments. In the absence of drug, Vmax (maximum upstroke velocity of the action potential) recovers from inactivation with an exponential time constant of less that 30 msec at -90 mV (Gettes and Reuter, 1974). […] The time constant of this recovery process is different for channels blocked by different drugs.
# [9] = Force of contraction of guinea pig papillary muscle; type: cell-based; conditions: guinea pig, papillary muscle
# Method: (§2) In order to initiate an investigation without the necessity to involve voltage-clamp of the calcium current, the preparations were subject to long depolarizing induced automaticity. If the cells are depolarized from about -50 to about -30 mV the automaticity is dependent on a transmembrane calcium current.
# as §1, with “Guinea pig papillary muscle excised from the right ventricle were mounted in a single sucrose gap apparatus (Arlock & Katzune, 1985).” left out, “The Tris-Tyrode solution contained (mM): NaCl, 145; KCl, 4; CaCl2, 1.2; MgCl2, 1.05; glucose, 5.5 Tris maleate, 5.” left out
# (§3) The force of contraction was measured with a strain gauge transducer before and after the addition of the test compounds to the medium. The percent reduction in maximum force of contraction from the control was calculated.
# [10] = test system: guinea pig papillary muscle; test: as above; type: cell-based
# Method: as §2
# as §1, with “Guinea pig papillary muscle excised from the right ventricle were mounted in a single sucrose gap apparatus (Arlock & Katzune, 1985).” left out, “The Tris-Tyrode solution contained (mM): NaCl, 145; KCl, 4; CaCl2, 1.2; MgCl2, 1.05; glucose, 5.5 Tris maleate, 5.” left out
# as §3
# [11] = test system: guinea pig papillary muscle; conditions: Block and Covino, 1981, Courtney, 1984, Kotelko et al.; cited from earlier work
# [12] = Anesthetic activity/potency comparison; type: in vivo; conditions: comparison within homologous series
# [13] = test system: tissue; conditions: in vivo, cited from earlier work
# [14] = listed as 5; cited from earlier work
# [15] = background statement; cited from earlier work
smiles,measurement,setting,value
"CCCCN1CCCCC1C(=O)Nc1c(C)cccc1C (racemic) [4 R, N--n-butylpipecolic acid-2,6-xylidide]",Tissue toxicity limits in %,"[1]; Trypan blue test, approximate threshold values of tissue irritancy, racemate",0.75%
same,LD50,"[2]; 50% mortality of mice, racemate",7.8 mg/kg
same,"Analgesia-duration, intracutaneous wheals",[3],118 ± 15 min
same,"Analgesia-duration, finger blockade",[4]; Concentration 0.25%,388 ± 50 min
same,Frequency (successful anesthesias of total performed),[4]; Concentration 0.25%,15/20
same,"Time of onset, finger blockade",[4]; Concentration 0.25%,9 ± 2 min
same,Temperature Difference (T1 wheal vs T2 controls),[5],-0.6 °C
same,T1 Intracutaneous Wheal temperature,[5],31.5 °C
same,potency to induce atrioventricular conduction disturbances,[6],most potent
same,death in ventricular fibrillation,"[7]; 4 mg intracoronary, eight pigs",Two animals died in ventricular fibrillation
same,"ventricular fibrillation (VF), time after injection","[7]; 4 mg intracoronary, listed as bupivacaine",≤ 33 s
same,sudden cardiac collapse,[7],occurred
same,affinity for the activated and inactivated channels,[8],very high affinity
same,recovery to 90% of drug-blocked channels,[8],3561 ms
same,potency on cardiac sodium channels,[8],highest
same,recovery from block,[8],very slow
same,inhibition at 5 µM,[9],45.1%
same,inhibition at 10 µM,[9],41.7%
same,effect on force of contraction/contractility,[10],pronounced depressant action
same,negative inotropic effect,[11],potent negative inotropic effect
"CCN1CCCCC1C(=O)Nc1c(C)cccc1C (stereo not drawn) [2 R, N--ethylpipecolic acid-2,6-xylidide]",Tissue toxicity limits in %,[1]; in vivo,3.0%
same,LD50,[2]; read-out: LD50 I.v. (intravenous),21 mg/kg
same,"Analgesia-duration, finger blockade",[4]; Concentration 0.5%,123 ± 19 min
same,Frequency (successful anesthesias of total performed),[4]; Concentration 0.5%,12/12
same,"Time of onset, finger blockade",[4]; Concentration 0.5%,10 ± 1 min
"CCCN1CCCC[C@H]1C(=O)Nc1c(C)cccc1C [3 L, L-N-n-propylpipecolic acid-2,6-xylidide]","Analgesia-duration, intracutaneous wheals",[3],220 ± 23 min
same,"Analgesia-duration, finger blockade",[4]; Concentration 0.25%,739 ± 46 min
same,Frequency (successful anesthesias of total performed),[4]; Concentration 0.25%,6/7
same,"Time of onset, finger blockade",[4]; Concentration 0.25%,12 ± 2 min
same,Temperature Difference (T1 wheal vs T2 controls),[5],-1.2 °C
same,T1 Intracutaneous Wheal temperature,[5],30.0 °C
same,effect on temperature over the wheal,[5]; comparison with lidocaine + adrenaline,lowers the temperature over its wheal to approximately the same extent as the combination of lidocaine with adrenaline
same,sudden cardiac collapse,[7],not
same,Vmax depression,[8]; 10^-4 M for a short period,very depressed
same,attenuated excitability,[8]; 10^-4 M for a short period,no attenuated excitability could be detected
same,time to full recovery of Vmax,"[8]; 10^-4 M, stimulus rate 1 Hz",20 min
same,elimination from the tissue (washout),[8]; 25 min. washout after 10^-4 M,readily eliminated from the tissue
same,recovery to 90% of drug-blocked channels,[8],2048 ms
same,recovery from block,[8]; listed as LEA,recovers faster; also recorded: considerably faster
same,inhibition at 5 µM,[9],13.8%
same,inhibition at 10 µM,[9],9.6%
same,inhibition at 100 µM,[9],8%
same,effect on force of contraction/contractility,[10]; listed as LEA,only moderately diminished; also recorded: very mild depressant actions
same,anesthetic effect,[12],optimal increase of anesthetic effects; also recorded: markedly superior
"CCCCCN1CCCCC1C(=O)Nc1c(C)cccc1C (stereo not drawn) [5 R, N--n-pentylpipecolic acid-2,6-xylidide]",tissue irritation,[13],irritating
same,tissue irritation,[13]; listed as 5,too irritating against tissue
same,solubility in water,[14],slightly soluble
"CCN(CC)CC(=O)Nc1c(C)cccc1C [Lidocaine, 2-diethylamino-2',6'-acetoxylidide]","Atrioventricular block, rats responding/total",[6]; 14 umol/kg i.v. bolus,0/8
same,"Ventricular arrhythmias, rats responding/total",[6]; 14 umol/kg i.v. bolus,0/8
same,"Atrioventricular block, rats responding/total",[6]; 20 umol/kg i.v. bolus,0/8
same,"Ventricular arrhythmias, rats responding/total",[6]; 20 umol/kg i.v. bolus,0/8
same,"Atrioventricular block, rats responding/total",[6]; 28 umol/kg i.v. bolus,3/8
same,"Ventricular arrhythmias, rats responding/total",[6]; 28 umol/kg i.v. bolus,0/8
same,"Atrioventricular block, rats responding/total",[6]; 40 umol/kg i.v. bolus,4/8
same,"Ventricular arrhythmias, rats responding/total",[6]; 40 umol/kg i.v. bolus,2/8
same,"Atrioventricular block, rats responding/total",[6]; 56 umol/kg i.v. bolus,8/8
same,"Ventricular arrhythmias, rats responding/total",[6]; 56 umol/kg i.v. bolus,1/8
same,potency to induce atrioventricular conduction disturbances,[6],least potent
same,block of channels; fast component not measurable,[8]; 10 uM,virtually all channels were blocked
same,recovery to 90% of drug-blocked channels,[8],308 ms
same,potency on cardiac sodium channels,[8],lowest potency
same,recovery from block,[8],considerably faster
same,local anesthetic effect duration for epidural use,[15],too short for epidural use
